Tests used:
LRRK2 WT [1] = target: T1, LRRK2 WT (Homo sapiens, UniProt Q5S007); test: In vitro kinase assay: LRRK2 autophosphorylation; assay type: biochemical; details: for LRRK2 autophosphorylation Average ± SEM: compound 16 μM, phosphorylation normalized to absence of compound, mean ± S.E.M. of three experiments
LRRK2 WT [2] = target: T1, LRRK2 WT; test: In vitro kinase assay: LRRK2-mediated MBP phosphorylation; assay type: biochemical; details: for MBP phosphorylation Average ± SEM: compound 16 μM, 30° C., 15 min, normalized to absence of compound, mean ± S.E.M. of three experiments

T1 sequence (Q5S007 whole entry): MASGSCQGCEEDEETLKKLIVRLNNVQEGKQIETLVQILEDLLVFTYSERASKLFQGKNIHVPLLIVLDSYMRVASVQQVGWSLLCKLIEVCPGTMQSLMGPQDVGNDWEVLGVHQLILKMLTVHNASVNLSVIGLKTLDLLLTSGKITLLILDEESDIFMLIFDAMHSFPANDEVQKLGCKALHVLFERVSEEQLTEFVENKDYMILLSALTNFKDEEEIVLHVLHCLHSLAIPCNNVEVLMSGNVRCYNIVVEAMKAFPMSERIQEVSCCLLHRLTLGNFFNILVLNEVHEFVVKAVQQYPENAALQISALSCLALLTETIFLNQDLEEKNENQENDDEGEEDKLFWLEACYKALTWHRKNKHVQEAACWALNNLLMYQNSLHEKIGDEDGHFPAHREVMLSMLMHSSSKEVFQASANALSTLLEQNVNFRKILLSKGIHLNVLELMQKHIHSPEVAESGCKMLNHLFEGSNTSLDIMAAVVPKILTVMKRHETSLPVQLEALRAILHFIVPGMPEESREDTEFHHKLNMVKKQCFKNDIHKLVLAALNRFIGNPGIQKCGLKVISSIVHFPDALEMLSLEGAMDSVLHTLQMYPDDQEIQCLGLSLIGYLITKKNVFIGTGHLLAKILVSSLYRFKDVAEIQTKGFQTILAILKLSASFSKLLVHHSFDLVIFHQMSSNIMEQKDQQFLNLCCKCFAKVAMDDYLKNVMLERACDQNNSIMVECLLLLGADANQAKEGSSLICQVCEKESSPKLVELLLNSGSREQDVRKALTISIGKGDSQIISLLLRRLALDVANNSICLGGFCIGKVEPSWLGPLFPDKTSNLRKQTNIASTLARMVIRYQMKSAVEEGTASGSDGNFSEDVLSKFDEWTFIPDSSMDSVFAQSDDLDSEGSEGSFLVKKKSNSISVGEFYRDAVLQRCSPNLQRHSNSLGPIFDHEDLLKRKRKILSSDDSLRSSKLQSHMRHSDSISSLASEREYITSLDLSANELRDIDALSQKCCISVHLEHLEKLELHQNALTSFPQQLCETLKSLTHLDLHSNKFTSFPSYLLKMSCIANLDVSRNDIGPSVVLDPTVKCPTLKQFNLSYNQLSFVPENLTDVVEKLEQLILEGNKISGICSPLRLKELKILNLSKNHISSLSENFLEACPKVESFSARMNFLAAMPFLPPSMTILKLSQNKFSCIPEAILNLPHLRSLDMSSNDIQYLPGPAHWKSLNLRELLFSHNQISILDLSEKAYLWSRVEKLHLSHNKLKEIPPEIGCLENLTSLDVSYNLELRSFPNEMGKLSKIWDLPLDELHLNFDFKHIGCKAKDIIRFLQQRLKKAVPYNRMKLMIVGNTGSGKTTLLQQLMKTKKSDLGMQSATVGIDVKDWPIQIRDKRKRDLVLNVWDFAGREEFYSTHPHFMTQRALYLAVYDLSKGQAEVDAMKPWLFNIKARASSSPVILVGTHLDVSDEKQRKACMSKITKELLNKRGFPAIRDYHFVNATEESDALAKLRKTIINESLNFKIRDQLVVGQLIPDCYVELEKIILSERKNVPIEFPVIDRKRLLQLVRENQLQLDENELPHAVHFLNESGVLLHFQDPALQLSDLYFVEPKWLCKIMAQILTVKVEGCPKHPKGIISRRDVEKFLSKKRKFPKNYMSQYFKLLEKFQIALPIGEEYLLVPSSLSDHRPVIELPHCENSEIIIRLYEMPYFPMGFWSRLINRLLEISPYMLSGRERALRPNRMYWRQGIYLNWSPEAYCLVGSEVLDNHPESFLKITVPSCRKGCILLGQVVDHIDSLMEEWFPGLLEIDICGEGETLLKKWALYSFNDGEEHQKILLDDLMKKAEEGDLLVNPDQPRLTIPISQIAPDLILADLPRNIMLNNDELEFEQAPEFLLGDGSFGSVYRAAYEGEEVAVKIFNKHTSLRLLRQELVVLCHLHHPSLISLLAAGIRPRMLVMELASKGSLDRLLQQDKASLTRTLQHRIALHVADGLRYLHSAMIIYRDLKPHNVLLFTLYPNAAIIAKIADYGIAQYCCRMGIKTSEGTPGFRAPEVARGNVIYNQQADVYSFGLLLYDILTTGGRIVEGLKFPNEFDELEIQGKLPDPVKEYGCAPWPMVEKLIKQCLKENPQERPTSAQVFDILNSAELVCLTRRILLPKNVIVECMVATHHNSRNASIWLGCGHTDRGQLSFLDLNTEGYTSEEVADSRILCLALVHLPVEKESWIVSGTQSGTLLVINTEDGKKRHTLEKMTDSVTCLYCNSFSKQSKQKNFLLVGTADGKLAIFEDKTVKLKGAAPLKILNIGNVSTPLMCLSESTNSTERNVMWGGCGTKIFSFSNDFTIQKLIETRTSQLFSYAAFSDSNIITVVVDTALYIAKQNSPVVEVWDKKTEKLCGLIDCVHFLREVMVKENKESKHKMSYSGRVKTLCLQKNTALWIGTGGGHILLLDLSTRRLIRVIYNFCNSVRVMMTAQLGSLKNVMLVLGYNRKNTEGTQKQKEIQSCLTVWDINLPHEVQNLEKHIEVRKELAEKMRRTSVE

SMILES | LRRK2 autophosphorylation Average ± SEM (LRRK2 WT [1]) | MBP phosphorylation Average ± SEM (LRRK2 WT [2]) | effect on LRRK2 autophosphorylation (LRRK2 WT [1]; screen at 16 μM) | effect on LRRK2-mediated phosphorylation of MBP (LRRK2 WT [2]; screen at 16 μM)
Cl.c1ccc(C2CN3CCSC3=N2)cc1 (centres unmarked) [Inhibitor 79] | 75.0 ± 2.3 % of control | 138.8 ± 33.9 % of control | – | –
COc1cc2ncc(-c3ccccc3)nc2cc1OC [Inhibitor 55] | 61.2 ± 9.6 % of control | 131.7 ± 34.2 % of control | – | –
N#CC(C#N)=C(N)/C(C#N)=C/c1cc(O)c(O)c(O)c1 [Inhibitor 15] | 79 ± 49.6 % of control | 105.1 ± 19.1 % of control | – | –
Cc1ccc(-c2nn(C(C)(C)C)c3ncnc(N)c23)cc1 [Inhibitor 24] | 88.3 ± 17.1 % of control | 103.6 ± 60.1 % of control | – | –
Cl.c1ccc([C@H]2CN3CCSC3=N2)cc1 [Inhibitor 78] | 74.6 ± 1.7 % of control | 133.2 ± 17.6 % of control | – | –
O=S(=O)(NCCNC/C=C/c1ccc(Br)cc1)c1cccc2cnccc12 [Inhibitor 35] | 90.8 ± 2.5 % of control | 85.3 ± 54.2 % of control | – | –
Cc1cc(O)c2c(=O)c3c(O)cc(O)c4c5c(O)cc(O)c6c(=O)c7c(O)cc(C)c8c1c2c(c34)c(c78)c65 [Inhibitor 32] | 57.4 ± 30.1 % of control | 160.9 ± 12 % of control | – | –
O=S(=O)(c1cccc2c(Cl)cccc12)N1CCCNCC1 [Inhibitor 43] | 71.6 ± 2.1 % of control | 120.2 ± 39.6 % of control | – | –
C/C(O)=C(\C#N)C(=O)Nc1cc(Br)ccc1Br [Inhibitor 50] | 66.8 ± 14.2 % of control | 138.8 ± 53.5 % of control | – | –
CC(C)(C)c1cc(C=C(C#N)C#N)cc(C(C)(C)C)c1O [Inhibitor 20] | 109.0 ± 19.7 % of control | 120.7 ± 29.4 % of control | – | –
Cc1cc2ncc(-c3ccccc3)nc2cc1C [Inhibitor 19] | 89.4 ± 12.5 % of control | 104.3 ± 14.6 % of control | – | –
NCCNS(=O)(=O)c1cccc2cnccc12 [Inhibitor 5] | 53.8 ± 34.5 % of control | 58.3 ± 22.9 % of control | – | –
Oc1ccc(-c2nc(-c3ccc(F)cc3)c(-c3ccncc3)[nH]2)cc1 [Inhibitor 51] | 64.9 ± 20.9 % of control | 125.5 ± 52.6 % of control | – | –
COc1ccc(S(=O)(=O)N(CCO)c2ccccc2CN(C)C/C=C/c2ccc(Cl)cc2)cc1 [Inhibitor 41] | 104.6 ± 26.6 % of control | 164.7 ± 40.0 % of control | – | –
CC[C@@H](CO)Nc1nc(NCc2ccccc2)c2ncn(C(C)C)c2n1 [Inhibitor 48] | 69.4 ± 30.1 % of control | 100.1 ± 41.5 % of control | – | –
COCc1cc(O)c(O)c(O)c1-c1c(COC)cc(O)c(O)c1O [Inhibitor 67] | 79.2 ± 24.2 % of control | 123.2 ± 33.8 % of control | – | –
CN([C@@H](Cc1ccc(OS(=O)(=O)c2cccc3cnccc23)cc1)C(=O)N1CCN(c2ccccc2)CC1)S(=O)(=O)c1cccc2cnccc12 [Inhibitor 40] | 83.1 ± 22.1 % of control | 125.2 ± 68.8 % of control | – | –
O=c1cc(N2CCOCC2)oc2c(-c3ccccc3)cccc12 [Inhibitor 29] | 79.3 ± 3.6 % of control | 75.5 ± 3.1 % of control | – | –
CC(C)(C)n1nc(-c2ccc(Cl)cc2)c2c(N)ncnc21 [Inhibitor 52] | 45.7 ± 22.1 % of control | 98.1 ± 44.2 % of control | – | –
C[C@@]12C(=O)OC(=O)[C@]1(C)[C@H]1CC[C@@H]2O1 [Inhibitor 72] | 69.1 ± 8.8 % of control | 109.7 ± 22.4 % of control | – | –
O=c1c(O)c(-c2ccc(O)c(O)c2)oc2cc(O)cc(O)c12 [Inhibitor 62, Quercetin dihydrate] | 39.2 ± 39.9 % of control | 70.1 ± 40.5 % of control | – | –
N#CC(=C(/N)Sc1ccccc1N)/C(C#N)=C(\N)Sc1ccccc1N [Inhibitor 2] | 86.9 ± 10.3 % of control | 101.0 ± 105 % of control | – | –
CC(C)CC(NC(=O)[C@H](CCC(=O)O)NC(=O)CNC(=O)c1ccc(/C=C/C(=O)O)cc1)C(N)=O (some centres unmarked) [Inhibitor 84] | 63.9 ± 12.0 % of control | 124.1 ± 37.2 % of control | – | –
CN(C)c1ccc(/C=C2\C(=O)Nc3ccccc32)cc1 [Inhibitor 54] | 37.5 ± 13.9 % of control | 112.8 ± 34.9 % of control | – | –

SMILES | LRRK2 autophosphorylation Average ± SEM (LRRK2 WT [1]) | MBP phosphorylation Average ± SEM (LRRK2 WT [2]) | effect on LRRK2 autophosphorylation (LRRK2 WT [1]; screen at 16 μM) | effect on LRRK2-mediated phosphorylation of MBP (LRRK2 WT [2]; screen at 16 μM)
CC1(C)[C@H](C=C(Br)Br)[C@@H]1C(=O)O[C@H](C#N)c1cccc(Oc2ccccc2)c1 [Inhibitor 81] | 73.9 ± 2.2 % of control | 99.6 ± 23.1 % of control | – | –
Brc1ccc([C@H]2CN3CCSC3=N2)cc1 [Inhibitor 75] | 75.9 ± 3.9 % of control | 83.2 ± 50.5 % of control | – | –
O=S(=O)(c1cccc2cnccc12)N1CCCNCC1 [Inhibitor 38] | 84.3 ± 21.9 % of control | 120.4 ± 64.7 % of control | – | –
N#C/C(=C\c1ccc(O)c(O)c1)C(N)=S [Inhibitor 14] | 80.5 ± 32.2 % of control | 110.5 ± 29.3 % of control | – | –
O=C(O)c1cc(NCc2cc(O)ccc2O)ccc1O [Inhibitor 39, 2-hydroxy-5-(2,5-dihydroxybenzyl-amino) benzoic acid] | 103.0 ± 4.4 % of control | 148.9 ± 71.4 % of control | – | –
CC1(C)[C@H](C=C(Cl)Cl)[C@@H]1C(=O)O[C@H](C#N)c1cccc(Oc2ccccc2)c1 [Inhibitor 80] | 66.4 ± 17.4 % of control | 76.9 ± 13.7 % of control | – | –
COC[C@H]1OC(=O)c2coc3c2[C@@]1(C)C1=C(C3=O)[C@@H]2CCC(=O)[C@@]2(C)C[C@H]1OC(C)=O [Inhibitor 30] | 83.0 ± 23.6 % of control | 66.8 ± 29.1 % of control | – | –
C#COC1(C)[C@@H]2CC[C@@H](O2)C1(C)C(=O)O (some centres unmarked) [Inhibitor 71] | 75.9 ± 2.1 % of control | 99.8 ± 3.4 % of control | – | –
COc1cc(/C=C(\C#N)C(N)=O)cc(CSc2nc3ccccc3s2)c1O [Inhibitor 8] | 81.7 ± 27.1 % of control | 81.5 ± 17.6 % of control | – | –
COC(=O)/C=C/c1cc(O)ccc1O [Inhibitor 61] | 73.0 ± 5.3 % of control | 93.9 ± 11.5 % of control | – | –
CC(C)(C)c1cc(/C=C(\C#N)C(N)=S)cc(C(C)(C)C)c1O [Inhibitor 28] | 69.8 ± 12.0 % of control | 76.7 ± 4.5 % of control | – | –
COc1cccc(-c2cc(=O)c3ccccc3o2)c1N [Inhibitor 1] | 77.9 ± 30.6 % of control | 77.5 ± 55.0 % of control | – | –
Cc1ccc(S(=O)(=O)/C=C/C#N)cc1 [Inhibitor 65] | 75.1 ± 12.8 % of control | 124.8 ± 23.5 % of control | – | –
CC(C)c1cc(/C=C(\C#N)C(=O)NCCCc2ccccc2)cc(C(C)C)c1O [Inhibitor 63] | 68.5 ± 1.5 % of control | 101.3 ± 25.3 % of control | – | –
O=P(O)(O)CCc1ccc2ccccc2c1O [Inhibitor 21] | 120.8 ± 54.1 % of control | 138.2 ± 36.9 % of control | – | –
CN[C@@H]1C[C@H]2O[C@@](C)([C@@H]1OC)n1c3ccccc3c3c4c(c5c6ccccc6n2c5c31)C(=O)NC4 [Inhibitor 6, Staurosporine, reference compound] | 1.9 ± 1.0 % of control | 9.2 ± 6.4 % of control | substantially inhibited | substantially inhibited
N=C(N)NCCNS(=O)(=O)c1cccc2cnccc12 [Inhibitor 37] | 81.1 ± 17.3 % of control | 106.7 ± 25.4 % of control | – | –
Cc1ccc(NC(=O)c2cccc(N(C)C)c2)cc1NC(=O)c1ccc(O)cc1 [Inhibitor 53] | 89.2 ± 2.7 % of control | 152.6 ± 38.0 % of control | – | –
COc1cc2ncnc(Nc3cccc(Cl)c3)c2cc1OC [Inhibitor 18] | 63.7 ± 28.0 % of control | 110.0 ± 44.0 % of control | – | –
Cn1cnc2c(NCc3ccccc3)nc(NCCO)nc21 [Inhibitor 46] | 72.5 ± 2.1 % of control | 125.3 ± 45.6 % of control | – | –
C#COC1C(C(=O)O)[C@H]2CC[C@@H]1O2 (some centres unmarked) [Inhibitor 73] | 78.8 ± 5.1 % of control | 128.9 ± 9.4 % of control | – | –
Cl.O=S(=O)(c1cccc2c(I)cccc12)N1CCCNCC1 [Inhibitor 42] | 87.3 ± 14.8 % of control | 89.4 ± 71.9 % of control | – | –
C=CC(=O)c1ccc2ccccc2c1 [Inhibitor 64] | 70.7 ± 4.2 % of control | 123.7 ± 26.3 % of control | – | –
N#CC(C#N)=Cc1ccc(O)cc1 [Inhibitor 83] | 68.6 ± 35.5 % of control | 118.2 ± 51.8 % of control | – | –
